How the values were obtained:
Type in all cases: biochemical
JAK1 = biological target: T1, JAK1 (Homo sapiens, UniProt P23458); experiment: JAK1 inhibition (Table 4); conditions: read-out: JAK1 Ki
T1 construct: made in house; host or cells: SF9 insect cells (baculovirus)

JAK2 = biological target: T2, JAK2 (Homo sapiens, UniProt O60674); experiment: JAK2 inhibition (Table 4); conditions: read-out: JAK2 Ki
T2 construct: made in house; host or cells: SF9 insect cells (baculovirus)

TYK2 = biological target: T3, TYK2 (Homo sapiens, UniProt P29597); experiment: TYK2 inhibition (Table 4)
T3 construct: made in house; host or cells: SF9 insect cells (baculovirus)
T3 sequence (P29597 873-1187): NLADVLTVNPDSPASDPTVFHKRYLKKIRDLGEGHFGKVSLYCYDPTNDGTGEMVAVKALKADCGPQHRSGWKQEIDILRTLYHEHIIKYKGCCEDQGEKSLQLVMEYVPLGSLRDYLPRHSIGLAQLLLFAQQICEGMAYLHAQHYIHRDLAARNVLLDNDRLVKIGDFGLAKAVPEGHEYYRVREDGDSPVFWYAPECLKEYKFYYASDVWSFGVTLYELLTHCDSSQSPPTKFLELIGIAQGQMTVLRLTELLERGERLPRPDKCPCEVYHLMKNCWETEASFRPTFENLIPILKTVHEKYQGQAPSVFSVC

JAK3 = biological target: T4, JAK3 (Homo sapiens, UniProt P52333); experiment: JAK3 inhibition (Table 4); conditions: read-out: JAK3 Ki
T4 construct: made in house; host or cells: SF9 insect cells (baculovirus)
T4 sequence (P52333 783-1124): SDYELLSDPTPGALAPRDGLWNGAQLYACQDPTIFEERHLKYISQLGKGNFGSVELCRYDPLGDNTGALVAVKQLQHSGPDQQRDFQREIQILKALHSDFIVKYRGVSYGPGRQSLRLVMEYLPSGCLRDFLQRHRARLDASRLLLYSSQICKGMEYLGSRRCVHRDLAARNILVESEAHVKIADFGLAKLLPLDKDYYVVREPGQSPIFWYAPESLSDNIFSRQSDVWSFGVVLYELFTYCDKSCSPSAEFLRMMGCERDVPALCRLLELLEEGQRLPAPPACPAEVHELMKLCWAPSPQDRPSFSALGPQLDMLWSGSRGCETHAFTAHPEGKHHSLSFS

T1 sequence (P23458 852-1154): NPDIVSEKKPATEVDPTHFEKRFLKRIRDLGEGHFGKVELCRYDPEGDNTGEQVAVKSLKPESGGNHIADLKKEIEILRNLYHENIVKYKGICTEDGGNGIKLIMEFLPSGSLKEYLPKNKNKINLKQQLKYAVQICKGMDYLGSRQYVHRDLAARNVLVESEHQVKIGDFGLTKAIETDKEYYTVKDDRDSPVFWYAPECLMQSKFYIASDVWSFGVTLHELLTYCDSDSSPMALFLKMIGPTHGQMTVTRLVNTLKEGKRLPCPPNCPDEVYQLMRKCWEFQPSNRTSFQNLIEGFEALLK
T2 sequence (O60674 812-1132): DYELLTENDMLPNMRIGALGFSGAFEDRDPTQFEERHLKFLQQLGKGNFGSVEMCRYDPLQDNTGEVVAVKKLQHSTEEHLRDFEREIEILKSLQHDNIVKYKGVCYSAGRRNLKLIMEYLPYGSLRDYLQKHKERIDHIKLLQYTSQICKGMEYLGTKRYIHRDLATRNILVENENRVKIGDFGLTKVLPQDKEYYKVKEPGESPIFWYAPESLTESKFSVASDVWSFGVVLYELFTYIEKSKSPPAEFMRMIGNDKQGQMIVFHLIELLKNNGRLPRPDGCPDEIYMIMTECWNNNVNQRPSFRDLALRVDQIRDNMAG

Row | SMILES | Ki (JAK1) [nM] | Ki (JAK2) [nM] | Ki (TYK2) [nM] | Ki (JAK3) [nM]
1 | Cc1nc2cnc3[nH]ccc3c2n1C1CCC(NCCC#N)C1 (racemic) [Example 627, Racemic trans 3-[3-(2-methyl-6H-1,2,3,5,6-tetraaza-as-indacen-1-yl)-cyclopentylamino]-propionitrile] | 1.36 | 5.91 | 12.7 | 14
2 | COCCNC1CCC(n2c(C)nc3cnc4[nH]ccc4c32)C1 (racemic) [Example 628, Racemic trans (2-methoxy-ethyl)-[3-(2-methyl-6H-1,2,3,5,6-tetraaza-as-indacen-1-yl)-cyclopentyl]-amine] | 43.1 | 375 | 974 | 798
3 | CS(=O)(=O)NC1CCC(n2cnc3cnc4[nH]ccc4c32)C1 (racemic) [Example 630, Racemic trans N-[3-(6H-1,2,3,5,6-tetraaza-as-indacen-1-yl)-cyclopentyl]-methanesulfonamide] | 2.59 | 6.62 | 25.8 | 18.4
4 | c1nc2c([nH]1)CCC(n1cnc3cnc4[nH]ccc4c31)C2 (racemic) [Example 707, 1-(4,5,6,7-Tetrahydro-3H-benzoimidazol-5-yl)-1,6-dihydro-1,2,3,5,6-tetraaza-as-indacene] | 74.5 | 123 | 391 | 112
5 | FC(F)(F)CNC1CCC(n2cnc3cnc4[nH]ccc4c32)C1 (racemic) [Example 717, [3-(6H-1,3,5,6-tetraaza-as-indacen-1-yl)-cyclopentyl]-(2,2,2-trifluoro-ethyl)-amine] | 6.11 | 13.3 | 35 | 59.7
6 | FC(F)(F)CNC1CCC(n2nnc3cnc4[nH]ccc4c32)C1 (racemic) [Example 718, [3-(6H-1,2,3,5,6-Pentaaza-as-indacen-1-yl)-cyclopentyl]-(2,2,2-trifluoro-ethyl)-amine] | 10.3 | 20.8 | 83.1 | 143
7 | COCCNC1CCC(n2cnc3cnc4[nH]ccc4c32)C1 (racemic) [Example 726, (2-Methoxy-ethyl)-[3-(6H-1,3,5,6-tetraaza-as-indacen-1-yl)-cyclopentyl]-amine] | 176 | 785 | 2220 | 754
8 | Cc1nc2cnc3[nH]ccc3c2n1C1CCC(NC(=O)CC#N)C1 (racemic) [Example 728, 2-Cyano-N-[3-(2-methyl-6H-1,3,5,6-tetraaza-as-indacen-1-yl)-cyclopentyl]-acetamide] | 1.52 | 6.24 | 22.4 | 2.26
9 | O=C(CC(F)(F)F)NC1CCC(n2cnc3cnc4[nH]ccc4c32)C1 (racemic) [Example 729, 3,3,3-Trifluoro-N-[3-(6H-1,3,5,6-tetraaza-as-indacen-1-yl)-cyclopentyl]-propionamide] | 2 | 9.79 | 48.9 | 13.5
10 | CN(CC(F)(F)F)C(=O)NC1CCC(n2cnc3cnc4[nH]ccc4c32)C1 (racemic) [Example 737, 1-Methyl-3-[3-(6H-1,3,5,6-tetraaza-as-indacen-1-yl)-cyclopentyl]-1-(2,2,2-trifluoro-ethyl)-urea] | 4.53 | 8.44 | 107 | 7.19
11 | COCCN(C)C(=O)NC1CCC(n2c(C)nc3cnc4[nH]ccc4c32)C1 (racemic) [Example 738, 1-(2-Methoxy-ethyl)-1-methyl-3-[3-(2-methyl-6H-1,3,5,6-tetraaza-as-indacen-1-yl)-cyclopentyl]-urea] | 11.6 | 49.1 | 351 | 80.9
12 | COCCN(C)C(=O)NC1CCC(n2cnc3cnc4[nH]ccc4c32)C1 (racemic) [Example 739, 1-(2-Methoxy-ethyl)-1-methyl-3-[3-(6H-1,3,5,6-tetraaza-as-indacen-1-yl)-cyclopentyl]-urea] | 21.3 | 53.8 | 536 | 299
13 | OCCOc1nc2cnc3[nH]ccc3c2n1C1CCCOC1 (racemic) [Example 780, 2-[1-(Tetrahydro-pyran-3-yl)-1,6-dihydro-1,3,5,6-tetraaza-as-indacen-2-yloxy]-ethanol] | 15.8 | 41.2 | 109 | 74.2
14 | CCN1CCC(n2c(CCNS(C)(=O)=O)nc3cnc4[nH]ccc4c32)C(F)(F)C1 (racemic) [Example 804, N-{2-[1-(1-Ethyl-3,3-difluoro-piperidin-4-yl)-1,6-dihydro-1,3,5,6-tetraaza-as-indacen-2-yl]-ethyl}-methanesulfonamide] | 2.97 | 25.2 | 172 | 13.6
15 | COCC(=O)NCCc1nc2cnc3[nH]ccc3c2n1C1CCCOC1 (racemic) [Example 860, 2-Methoxy-N-{2-[1-(tetrahydro-pyran-3-yl)-1,6-dihydro-1,3,5,6-tetraaza-as-indacen-2-yl]-ethyl}-acetamide] | 20.2 | 296 | 806 | 561
16 | CCN1CCC(n2c(CO)nc3cnc4[nH]ccc4c32)C(F)(F)C1 (racemic) [Example 941, [1-(1-Ethyl-3,3-difluoro-piperidin-4-yl)-1,6-dihydro-1,3,5,6-tetraaza-as-indacen-2-yl]-methanol] | 1.8 | 10.6 | 14.7 | 5.97
17 | O=C(O)C1CC1C(O)c1nc2cnc3[nH]ccc3c2n1C1CCCCC1 (racemic) [Example 942, 2-[(1-Cyclohexyl-1,6-dihydro-1,3,5,6-tetraaza-as-indacen-2-yl)-hydroxy-methyl]-cyclopropanecarboxylic acid] | 5.09 | 200 | 30.5 | 94.1

The remaining molecules from weak to strong by Ki (JAK1), led by results:

Row | Ki (JAK1) [nM] | Ki (JAK2) [nM] | Ki (TYK2) [nM] | Ki (JAK3) [nM] | SMILES
18 | 35 | 290 | 86.2 | 95.5 | OC(c1nc2cnc3[nH]ccc3c2n1C1CCCCC1)C1CCOCC1 (racemic) [Example 875, (1-Cyclohexyl-1,6-dihydro-1,3,5,6-tetraaza-as-indacen-2-yl)-(tetrahydro-pyran-4-yl)-methanol]
19 | 28.1 | 67.5 | 207 | 20.6 | CC1(n2cnc3cnc4[nH]ccc4c32)CCCN(C(=O)CC#N)C1 (racemic) [Example 706, 3-[3-Methyl-3-(6H-1,2,3,5,6-tetraaza-as-indacen-1-yl)-piperidin-1-yl]-3-oxo-propionitrile]
20 | 6.06 | 72.4 | 26.8 | 119 | C[C@@H](O)c1nc2cnc3[nH]ccc3c2n1C1CCCC(C#N)C1 (mixture of isomers) [Example 648, Racemic cis 3-[2-((R)-1-Hydroxy-ethyl)-6H-1,2,3,5,6-tetraaza-as-indacen-1-yl]-cyclohexanecarbonitrile]
21 | 2.85 | 8.59 | 64.7 | 16.2 | O=C(CCC(F)(F)F)NC1CCC(n2cnc3cnc4[nH]ccc4c32)C1 (racemic) [Example 732, 4,4,4-Trifluoro-N-[3-(6H-1,3,5,6-tetraaza-as-indacen-1-yl)-cyclopentyl]-butyramide]
22 | 1.49 | 7.24 | 21.1 | 1.87 | Cc1nc2cnc3[nH]ccc3c2n1C1CCC(NC(=O)CC(F)(F)F)C1 (racemic) [Example 730, 3,3,3-Trifluoro-N-[3-(2-methyl-6H-1,3,5,6-tetraaza-as-indacen-1-yl)-cyclopentyl]-propionamide]
23 | 1.36 | 4.99 | 32 | 11 | N#CCC(=O)NC1CCC(n2cnc3cnc4[nH]ccc4c32)C1 (racemic) [Example 629, Racemic trans 2-cyano-N-[3-(6H-1,2,3,5,6-tetraaza-as-indacen-1-yl)-cyclopentyl]-acetamide]
24 | 1.28 | 6.42 | 57.2 | 0.79 | Cc1nc2cnc3[nH]ccc3c2n1C1CCC(NC(=O)N(C)CC(F)(F)F)C1 (racemic) [Example 736, 1-Methyl-3-[3-(2-methyl-6H-1,3,5,6-tetraaza-as-indacen-1-yl)-cyclopentyl]-1-(2,2,2-trifluoro-ethyl)-urea]
25 | 1.09 | 4.04 | 13.4 | 14.2 | Cc1nc2cnc3[nH]ccc3c2n1C1CCC(NS(C)(=O)=O)C1 (racemic) [Example 721, N-[3-(2-methyl-6H-1,3,5,6-tetraaza-as-indacen-1-yl)-cyclopentyl]-methanesulfonamide]
26 | 0.96 | 31.3 | 8.91 | 25.5 | OC(c1nc2cnc3[nH]ccc3c2n1C1CCCCC1)C1CC1 (racemic) [Example 940, (1-Cyclohexyl-1,6-dihydro-1,3,5,6-tetraaza-as-indacen-2-yl)-cyclopropyl-methanol]
27 | 0.89 | 17.9 | 10.1 | 8.69 | O=C(Cc1nc2cnc3[nH]ccc3c2n1C1CC2CCC1C2)N1CCC(O)CC1 (racemic) [Example 869, 2-(1-Bicyclo[2.2.1]hept-2-yl-1,6-dihydro-1,3,5,6-tetraaza-as-indacen-2-yl)-1-(4-hydroxy-piperidin-1-yl)-ethanone]

Source: US8461328B2, “Tricyclic heterocyclic compounds, compositions and methods of use thereof” (Genentech, Inc., priority 2010, dated 2013)
